Assay results as given in patent publication US20070197599A1, “HYDROXYLAMINES AND DERIVATIVES AS ANTI-ANGIOGENIC AGENTS” (priority 2006, published 2007).
Several values for one entry are separate records, joined by “and”; a condition that tells them apart may be missing. Equal values may be shown once.

How the values were obtained:
[1] = test system: H2O2-induced angiogenesis in the CAM model; assay: H2O2-induced angiogenesis in the chick chorioallantoic membrane (CAM) model; assay type: in vivo
Procedure: (§1) Neovascularization was examined by previously described methods (see references at the end of Example 5). Ten-day-old fertilized chicken eggs were incubated at 37° C. with 55% relative humidity. In the dark with the help of candling lamp and using a hypodermic needle a small hole was punctured in the shell covering the air sac. A second hole was punctured on the wider side of the egg above an avascular area of the embryonic membrane. An artificial air sac was created below the second hole by applying gentle vacuum to the first hole using a small rubber squeeze bulb. The vacuum caused the separation of chorioallantoic membrane (CAM) from the shell. An approximately 1.0 cm^2 widow was cut in the shell over the dropped CAM with the use of a mini drill. The underlying CAM was accessed through this small window.
(§2) Filter disks were punched using a small puncher from filter paper #1 (Whatman International, United Kingdom). Filter disks were soaked in 3 mg/ml cortisone acetate solution (95% ethanol and water) and air-dried under sterile condition. For inducing angiogenesis, sterile filter disks were saturated with bFGF (1 μg/ml) or other pro-angiogenesis factors and control disks were saturated with PBS without Calcium and Magnesium.
(§3) Using sterile forceps one filter/CAM was placed from the window. The window was sealed with Highland brand transparent tape. After 24 hr, 10-25 µl of test agent (inhibitor) was injected intravenously or added topically into the CAM membrane of bFGF or other pro-angiogenesis factors stimulated CAMs. • Control filter disks received PBS without Calcium and Magnesium. • After 48 hr, CAM tissue directly beneath filter disk was harvested and placed in a 35-mm Petri dish. Eight-Ten eggs/treatment group was used.
(§4) A pro-angiogenic agent (see Examples, below) was added to induce new blood vessel branches on the CAM of 10-day old embryos. Sterile disks of #1 filter paper (Whatman International, United Kingdom) were pre-treated with 3 mg/ml cortisone acetate, and air dried under sterile conditions. The disks were then suspended in PBS (Phosphate Buffered Saline) and placed on growing CAMs. Filters treated with TPH (TEMPOL-H) or TEMPOL and/or H2O2 or TPH and/or bFGF or VEGF were placed on the first day of the 3-day incubation.
(§5) Digital Images and Microscopic analysis of CAM sections: CAM sections from Petri dish were examined using SV6 stereomicroscope (Karl Zeiss) at 50× magnification. Digital images were captured using a 3-CCD color video camera system (Toshiba America, New York, N.Y.). These images were analyzed using Image-Pro Plus software (Media Cybernetics). The number of branch points in blood vessels within the circular region superimposed to the area of a filter disk was counted for each section. After incubation at 37° C. with 55% relative humidity for 3 days, the CAM tissue directly beneath each filter disk was resected from control and treated CAM samples. Tissues were washed three times with PBS. Sections were placed in a 35-mm Petri dish (Nalge Nunc; Rochester, N.Y.) and were examined under a SV6 stereomicroscope (Karl Zeiss; Thornwood, N.Y.) at 50× magnification. Digital images of CAM sections adjacent to filters were collected using a 3-CCD color video camera system (Toshiba America; New York, N.Y.) and analyzed with the Image-Pro Plus software (Media Cybernetics; Silver Spring, Md.). The number of vessel branch points contained in a circular region equal to the area of a filter disk was counted for each section. Percent inhibition data are expressed as the quotient of the experimental value minus the negative control value divided by the difference between the positive control value and the negative control value. One image was counted in each CAM preparation, and findings from eight CAM preparations were analyzed for each treatment condition. In addition, each experiment was performed three times. […]

[2] = test system: bFGF-induced angiogenesis in the CAM model; assay: bFGF-induced angiogenesis in the CAM model (TPH); assay type: in vivo, chick
Procedure: as §1, §2, §3, §4, §5

[3] = Single-dose 10-minute intravenous infusion toxicokinetics in Sprague-Dawley rats; assay type: in vivo
Procedure: Blood for toxicokinetic evaluations was collected at pre-determined time points during and after the infusion.
All pharmacokinetic analyses were performed using Kinetica®, version 4.2 (Innaphase, Philadelphia, Pa.).
Cmax is the observed maximum plasma concentration
Tmax is the time Cmax is reached
T1/2 is the elimination half-life
The plasma concentrations were rounded to the nearest tenth of a ng/mL before the calculations. […] Nominal time points were used for all calculations.

[4] = H2O2 (88 μM, 30 ng) + 100 μg test agent
[5] = H2O2 (88 μM, 30 ng) + 200 μg test agent
[6] = H2O2 (88 μM, 30 ng) + 400 μg test agent
[7] = H2O2 (88 μM, 30 ng) + 800 μg test agent
[8] = after Compound 1 10 mg/kg iv infusion
[9] = after Compound 1 30 mg/kg iv infusion
[10] = after Compound 1 100 mg/kg iv infusion

## CC1(C)CC(O)CC(C)(C)N1O [TPH]
[1]; CAM model, Tables 1A and 1B
  inhibition of angiogenesis induced by super-maximal concentrations of H2O2: effectively inhibited
[1]; [4]
  % Inhibition ± SD: 28.0 ± 13.6 %
  Branch pts ± SEM: 155 ± 14.4
[1]; [5]
  % Inhibition ± SD: 32.9 ± 8.4 %
  Branch pts ± SEM: 151.3 ± 15.3
[1]; [6]
  % Inhibition ± SD: 44.7 ± 6.6 %
  Branch pts ± SEM: 137.2 ± 6.9
[1]; [7]
  % Inhibition ± SD: 55.7 ± 7.2 %
  Branch pts ± SEM: 127.3 ± 6.4
[2]; 100-400 μg
  inhibition of bFGF-induced angiogenesis: dose-dependent inhibition
[2]; bFGF (1 μg/ml) + TPH 100 μg
  Mean % Inhibition ± SD: 20 ± 12%
  Mean Branch points ± SEM: 172 ± 12.4
[2]; bFGF (1 μg/ml) + TPH 200 μg
  Mean % Inhibition ± SD: 45.3 ± 7.5 %
  Mean Branch points ± SEM: 147.2 ± 7.5
[2]; bFGF (1 μg/ml) + TPH 400 μg
  Mean % Inhibition ± SD: 58.7 ± 10.9 %
  Mean Branch points ± SEM: 133.8 ± 10.8
[2]; bFGF (1 μg/ml) + TPH 800 μg
  Mean % Inhibition ± SD: 28.1 ± 6.8 %
  Mean Branch points ± SEM: 164.2 ± 6.7
[3]; after Compound 1 10 mg/kg dose
  plasma levels of TPH at 4 hr post infusion: still quantifiable
[3]; [8]
  AUC(0-4.167 hr) of TPH: 1694.8 ng·h/mL
  Cmax of TPH: 2481.7 ng/mL
  Tmax of TPH: 10 min
  T½ of TPH (elimination half-life): 24 min
[3]; after Compound 1 10 mg/kg iv infusion, 0.167 hr
  Plasma concentration of TPH: 2481.7 ± 325.8 ng/mL
[3]; after Compound 1 10 mg/kg iv infusion, 1.167 hr
  Plasma concentration of TPH: 204.7 ± 85.6 ng/mL
[3]; after Compound 1 10 mg/kg iv infusion, 2.167 hr
  Plasma concentration of TPH: 25.2 ± 24.0 ng/mL
[3]; after Compound 1 10 mg/kg iv infusion, 4.167 hr
  Plasma concentration of TPH: 4.2 ± 10.3 ng/mL
[3]; after Compound 1 10 mg/kg iv infusion, to time infinity
  AUC of TPH: 1697.5 ng·h/mL
[3]; [9]
  Cmax of TPH: 8337.7 ng/mL
  Tmax of TPH: 10 min
[3]; after Compound 1 30 mg/kg iv infusion, 0.167 hr
  Plasma concentration of TPH: 8337.7 ± 2099.5 ng/mL
[3]; after Compound 1 30 mg/kg iv infusion, 4.167 hr
  Plasma concentration of TPH: 53.8 ± 29.7 ng/mL
[3]; [10]
  Cmax of TPH: 29020.8 ng/mL
  Tmax of TPH: 10 min
[3]; after Compound 1 100 mg/kg iv infusion, 0.167 hr
  Plasma concentration of TPH: 29020.8 ± 11713.7 ng/mL
[3]; after Compound 1 100 mg/kg iv infusion, 4.167 hr
  Plasma concentration of TPH: 160.0 ± 97.5 ng/mL
[3]; after Compound 1 200 mg/kg iv infusion
  Tmax of TPH: 10 min
[3]; after Compound 1 200 mg/kg iv infusion, 0.167 hr
  Plasma concentration of TPH: 60802.2 ± 8922.5 ng/mL
[3]; after Compound 1 200 mg/kg iv infusion, 4.167 hr
  Plasma concentration of TPH: 524.5 ± 237.0 ng/mL
[3]; after Compound 1 200 mg/kg iv infusion, 200 mg/kg
  Cmax of TPH: 60802.1 ng/mL and 60802.2 ng/mL
[3]; after Compound 1 30, 100 and 200 mg/kg
  levels of TPH at four hours after terminating the infusion relative to concentrations immediately after terminating the infusions: less than 1%
